Source: publication PMC11784839, “Monoaminergic neurotransmitters are bimodal effectors of tau aggregation” (Science Advances, 2025)

Molecular target: tau (Homo sapiens, UniProt P10636)
Experiment: MCE Phenols Library screening, tau biosensor cell seeding assay (AvZ)
Type: cell-based
Conditions: for Z repl 1 / Z Repl 2: Z score; for Z repl 1 / raw data 1: replicate 1; for Z Repl 2 / raw data 2: replicate 2; for AvZ (average z score of seeding, SDs from the mean level of seeding): 10 μM phenol in cell cultures, AD brain homogenate preincubated 16 hours, two biological replicates, positive = catalyzes seeding, negative = inhibits
[1] = average Z score of the two replicates, tau biosensor seeding, MCE Phenols Library screen
[2] = average Z score of the two replicates, MCE Phenols Library screen
[3] = average puncta of the two replicates
[4] = average Z score of the two replicates, tau seeding
[5] = average Z score of two replicates, Phenols Library screen

tau, sequence (P10636 623-695 limits assumed): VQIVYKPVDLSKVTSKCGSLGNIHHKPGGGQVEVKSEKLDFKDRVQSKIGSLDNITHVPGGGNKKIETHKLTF

Compound | Z repl 1 | Z Repl 2 | av Z [1] | av puncta (average of raw data 1 and 2) | raw data 1 (puncta) | raw data 2 (puncta) | av Z [2] | av puncta [3] | raw data 1 (raw puncta) | raw data 2 (raw puncta) | AvZ (average z score of seeding, SDs from the mean level of seeding) | av Z [4] | av Z [5]
CCC1(O)C(=O)OCc2c1cc1n(c2=O)Cc2cc3cc(O)ccc3nc2-1 (racemic) [(±)-10-Hydroxycamptothecin] | 2.809 | 1.992 | 2.4 | 47054 | 60066.9 | 34041 |  |  |  |  |  |  | 
C[C@@H]1O[C@@H](Oc2c(-c3ccc(O)c(O)c3)oc3cc(O)cc(O)c3c2=O)[C@H](O)[C@H](O)[C@H]1O [Quercitrin] | -0.089 | -0.329 |  |  |  |  | -0.209 | 17263.5 | 25279.8 | 9247.27 |  |  | 
COc1cc(/C=C/C(=O)O[C@H]2[C@H](O)C[C@](O)(C(=O)O)C[C@H]2O)ccc1O [4-Feruloylquinic acid] | -1.622 | -0.646 |  | 6372.47 | 6875.06 | 5869.87 | -1.134 |  |  |  |  |  | 
COc1cc(CNC(=O)CCCCCCCC(C)C)ccc1O [Homodihydrocapsaicin I] | -0.665 | 0.327 |  | 17309.6 | 18361.4 | 16257.8 |  |  |  |  | -0.169 |  | 
Oc1cccc(O)c1O [Pyrogallol] | -0.635 | -1.067 |  | 10051 | 18727.1 | 1374.88 |  |  |  |  | -0.851 |  | 
COc1ccc(-c2oc3c(CC=C(C)C)c(O)cc(O)c3c(=O)c2O[C@@H]2O[C@@H](C)[C@H](O)[C@@H](O)[C@H]2O)cc1 [Baohuoside I] | 0.959 | 1.521 | 1.24 | 33434.4 | 37856.1 | 29012.8 |  |  |  |  |  |  | 
COc1cc2oc(-c3ccccc3)cc(=O)c2c(O)c1OC [Mosloflavone] | 0.192 | 0.208 |  | 21820.5 | 28649.1 | 14991.8 |  |  |  |  |  | 0.2 | 
COc1cc(CNC(=O)CCCC/C=C/C(C)C)ccc1O [Capsaicin, reference compound] | 0.025 | -0.661 |  |  |  |  |  | 16179.6 | 26653.4 | 5705.75 | -0.318 |  | 
Oc1cc(O)c2cc(O)c(-c3ccc(O)c(O)c3)[o+]c2c1.[Cl-] [Cyanidin (Chloride)] | -1.789 | -1.05 |  | 3213.88 | 4876.54 | 1551.23 | -1.419 |  |  |  |  |  | 
COc1cc2c(cc1O)C[C@H]1c3cc(O)c(OC)cc3CC[N@@+]1(C)C2.[Cl-] [Phellodendrine (chloride)] | 0.263 | -0.68 |  |  |  |  | -0.208 | 17505.3 | 29504.3 | 5506.25 |  |  | 
COc1ccc(CC(=O)c2ccc(O)cc2O)cc1 [Ononetin] | -0.169 | 0.358 |  | 20456.3 | 24324.1 | 16588.6 |  |  |  |  |  |  | 0.095
O=c1c(O[C@@H]2O[C@H](CO)[C@@H](O)[C@H](O)[C@H]2O[C@@H]2O[C@H](CO)[C@@H](O)[C@H](O)[C@H]2O)c(-c2ccc(O)cc2)oc2cc(O)cc(O)c12 [Kaempferol 3-O-sophoroside] | -0.587 | 0.035 |  |  |  |  | -0.276 | 16225.3 | 19307.9 | 13142.7 |  |  | 
COc1cc(-c2coc3cc4c(c(O)c3c2=O)OCO4)cc(O)c1OC [Dichotomitin] | 0.855 | 0.348 |  | 26548.7 | 36614.6 | 16482.8 |  |  |  |  |  | 0.602 | 
C[C@@H]1O[C@@H](O[C@@H]2[C@@H](O)[C@H](OCCc3ccc(O)c(O)c3)O[C@H](CO)[C@H]2OC(=O)/C=C/c2ccc(O)c(O)c2)[C@H](O)[C@H](O)[C@H]1O [Verbascoside] | -0.258 | -1.055 |  |  | 23255.9 | 1501.28 | -0.656 | 12378.6 |  |  |  |  | 
O=C(/C=C/c1ccc(O)c(O)c1/C=C/c1ccc(O)c(O)c1)O[C@H](Cc1ccc(O)c(O)c1)C(=O)O [Salvianolic acid A] | -2.14 | -1.185 |  | 383.467 | 661.17 | 105.765 | -1.663 |  |  |  |  |  | 
C[C@H]1CCCC(=O)CCCCCc2cc(O)cc(O)c2C(=O)O1 [Zearalanone] | 0.089 | -0.477 |  | 17549.1 | 27422.4 | 7675.78 |  |  |  |  |  |  | -0.194

Compound | Z repl 1 | Z Repl 2 | av Z [1] | av puncta (average of raw data 1 and 2) | raw data 1 (puncta) | raw data 2 (puncta) | av Z [2] | av puncta [3] | raw data 1 (raw puncta) | raw data 2 (raw puncta) | AvZ (average z score of seeding, SDs from the mean level of seeding) | av Z [4] | av Z [5]
COc1ccc(/C=C/c2cc(O)cc(O[C@@H]3O[C@H](CO)[C@@H](O)[C@H](O)[C@H]3O)c2)cc1 [Desoxyrhaponticin] | 0.811 | -0.238 |  | 23150.9 | 36082.1 | 10219.6 |  |  |  |  |  | 0.286 | 
C/C=C/c1ccc(OC(C)=O)c(OC)c1 [Isoeugenol acetate] | -0.788 | 0.239 |  |  |  |  |  | 16103.3 | 16893.4 | 15313.2 | -0.275 |  | 
C[C@H]1O[C@@H](O[C@H]2[C@H](Oc3c(-c4ccc(O)cc4)oc4cc(O)cc(O)c4c3=O)O[C@@H](CO)[C@H](O)[C@H]2O)[C@H](O)[C@@H](O)[C@@H]1O [Kaempferol-3-O-glucorhamnoside] | -0.601 | -1.001 |  | 10603.6 | 19130.8 | 2076.39 | -0.801 |  |  |  |  |  | 
COc1cc2c(cc1O)CC[C@@H]1[C@@H]2CC[C@]2(C)[C@@H](O)CC[C@@H]12 [2-Methoxyestradiol] | 1.646 | 0.7 | 1.173 | 33178.1 | 46109.4 | 20246.7 |  |  |  |  |  |  | 
COc1c(O)c(C)cc2c1C(=O)c1c(O)cccc1C2=O [Obtusifolin] | -0.23 | 0.069 |  | 18542 | 23582.4 | 13501.7 |  |  |  |  |  |  | -0.081
Cc1ccc(C(C)C)cc1O [Carvacrol] | 0.54 | 1.419 |  | 30376.1 | 32834.5 | 27917.7 |  |  |  |  | 0.979 |  | 
COc1cc(O)c(C(=O)/C=C/c2ccc(O)cc2)c(OC)c1 [Flavokawain C] | -0.666 | -0.177 |  |  |  |  | -0.422 | 14614.7 | 18356 | 10873.4 |  |  | 
O=c1c2c(O)cc(O)cc2oc2c(O)ccc(O[C@@H]3O[C@H](CO)[C@@H](O)[C@H](O)[C@H]3O)c12 [Norswertianolin] | -0.236 | -0.647 |  |  |  |  | -0.441 | 14688.3 | 23518.4 | 5858.11 |  |  | 
COc1cc2oc3cc(O)c(OC)c(CC=C(C)C)c3c(=O)c2c(O)c1CC=C(C)C [beta-Mangostin] | -0.244 | -0.19 |  |  |  |  | -0.217 | 17083.5 | 23425.5 | 10741.6 |  |  | 
COc1cc(C(=O)O[C@H]2[C@@H]3C=CO[C@@H](O[C@@H]4O[C@H](CO)[C@@H](O)[C@H](O)[C@H]4O)[C@@H]3[C@@]3(CO)O[C@@H]23)ccc1O [Picroside II] | -0.222 | -0.853 |  |  | 23683.5 | 3659.57 | -0.537 | 13671.5 |  |  |  |  | 
C[C@@H]1O[C@@H](OC[C@H]2O[C@@H](Oc3c(-c4ccc(O)cc4)oc4cc(O)cc(O)c4c3=O)[C@H](O[C@@H]3O[C@@H](C)[C@H](O)[C@@H](O)[C@H]3O)[C@@H](O)[C@H]2O)[C@H](O)[C@H](O)[C@H]1O [Mauritianin] | 0.781 | 1.032 | 0.906 | 29752.2 | 35719.4 | 23785 |  |  |  |  |  |  | 
O=C(O)Cc1cccc(O)c1 [3-Hydroxyphenylacetic acid] | 0.164 | -0.218 |  | 19376.5 | 28313.1 | 10440 |  |  |  |  | -0.027 |  | 
Cc1cc(O)c2c(=O)c3c(O)cc(O)c4c5c(O)cc(O)c6c(=O)c7c(O)cc(C)c8c1c2c(c34)c(c78)c65 [Hypericin] | -1.344 | -0.424 |  | 9227.43 | 10216.3 | 8238.56 | -0.884 |  |  |  |  |  | 
COc1ccc2c(c1)OC[C@@H](c1cc(O)c(OC)c(OC)c1O)C2 [Colutehydroquinone] | 0.366 | 0.999 |  | 27089.5 | 30747.2 | 23431.8 |  |  |  |  |  | 0.683 | 
O=C(c1ccc(O)cc1)c1c(O)cc(O)c([C@@H]2O[C@H](CO)[C@@H](O)[C@H](O)[C@H]2O)c1O [Iriflophenone 3-C-glucoside] | 0.626 | -0.232 |  | 22078.3 | 33866.6 | 10290 |  |  |  |  |  | 0.197 | 
